# Entries after “also recorded” stand apart in the source; their conditions may differ.
# Assay: Body weight in the neonatal PCP mouse model of schizophrenia
# [1] = PND 35-37, postnatal BCP 10 mg/kg 1 h after PCP
substance,measurement,setting,value
"trans-(1R,9S)-8-methylene-4,11,11trimethylbicyclo[7.2.0]undec-4-ene [BCP]",body weight at PND 17,"BCP 10 mg/kg 1 h after PCP, ethanol-based vehicle, PCP+BCP vs PCP",no significant difference between groups treated with PCP with or without BCP
same,body weight,"BCP 10 mg/kg 1 h after PCP, postnatal, DMSO-based vehicle",completely reversed the effect of PCP on body weight
same,body weight,"BCP 10 mg/kg injected 1 h after each PCP 5 mg/kg dose, PND 3-16, Cremophor EL:ethanol:saline vehicle, weight PND 3-17",significantly reversed the inhibitory effect of PCP on body weight; also recorded: reversed the reduction in body weight during the first week of life; also recorded: did not restore the weight completely
same,"effect on PCP-induced reduction of body weight, males","PND 17, BCP 10 mg/kg 1 h after PCP, ethanol-based vehicle",appeared to be more prominent
same,"body weight, females",[1],significantly reversed the effect of PCP on female body weight
same,"body weight, males",[1],no significant difference in male body weight between the groups
same,body weight,"PND 104, postnatal PCP, BCP 5 mg/kg PND 43-61","did not increase body weight in females and males, rather reduced body weight of PCP+BCP treated group"
same,body weight of adolescent mice,"postnatal PCP, BCP 5 mg/kg injected twice a week PND 43-61 (DMSO:Cremophor EL:saline)",did not affect body weight of adolescent mice
same,"body weight, male mice","postnatal day 83, oral BCP 10 mg/kg twice a week, PND 43-62",did not affect body weight of male mice at postnatal day 83; also recorded: did not affect their body weight
